The record followed here is patent US8642317B2 (priority 2007, dated 2014).

One experiment deals with bacterial isolate 180507-1 (IDAC).
For the compound `CC(=O)OCC12CCC(C)=CC1OC1C(O)C(O)C2(C)C12CO2` (stereo not shown) [15-monoacetoxyscirpenol], the “degradation by the selected isolate (deepoxidation and/or deacylation)” value (shortened to “degradation by the selected isolate”) is listed as “degraded”.

`CC(=O)OC[C@]12[C@H](O)C(=O)C(C)=C[C@H]1O[C@@H]1[C@H](O)C[C@@]2(C)[C@]12CO2` [15-acetyldeoxynivalenol]: the “degradation by the selected isolate” value was “degraded”.

As for `CC(=O)O[C@@H]1C[C@]2(C)[C@@]3(CO)[C@H](O)C(=O)C(C)=C[C@H]3O[C@H]1[C@@]21CO1` [3-acetyldeoxynivalenol], the “degradation by the selected isolate” value is on record as “degraded”.

For 4-diacetoxyscirpenol, the “degradation by the selected isolate” value was “degraded”.

Regarding `CC1=C[C@H]2O[C@@H]3[C@H](O)[C@@H](O)[C@](C)([C@@]2(CO)C[C@@H]1OC(=O)CC(C)C)[C@]31CO1` [T-2 triol], the “degradation by the selected isolate” value is given as “degraded”.

On to `CC1=C[C@H]2O[C@@H]3[C@H](O)[C@@H](O)[C@](C)([C@@]2(CO)[C@H](O)C1=O)[C@]31CO1` [nivalenol], for which the “degradation by the selected isolate” value is on record as “degraded”.

Regarding `CC(=O)OC[C@]12C[C@H](O)C(C)=C[C@H]1O[C@@H]1[C@H](O)[C@@H](OC(C)=O)[C@@]2(C)[C@]12CO2` [neosolaniol], the “degradation by the selected isolate” value was “degraded”.

With `CC(=O)O[C@@H]1[C@@H](O)[C@H]2O[C@@H]3C=C(C)C(=O)[C@@H](O)[C@]3(CO)[C@]1(C)[C@]21CO1` [fusarenon X], the “degradation by the selected isolate” value is reported as “degraded”.

On to `CC(=O)OC[C@]12C[C@H](OC(=O)CC(C)C)C(C)=C[C@H]1O[C@@H]1[C@H](O)[C@@H](O)[C@@]2(C)[C@]12CO2` [HT-2 toxin], for which the “degradation by the selected isolate” value is recorded as “degraded”.

The next experiment shares this test system. The class given is cell-based. This is another data set of the same source.
On to Vancomysin, for which the “Reaction (sensitivity of the isolate)” value is listed as “Sensitive”.
